Laboratory results as given in patent US4530931A, “8-Quinoline carbanilates for the inhibition of lipolysis” (priority 1984, dated 1985).

Experiments:
Canine cardiac lipases = assay: Myocardial lipase assay; type: biochemical; settings: for Lipase % Inh. at 100 μM: 100 μM compound, tested in duplicate; for IC50: triolein emulsion, Tris pH 6.8, read-out: Lipase I50
Protocol: All compounds were dissolved in DMSO (final concentration 3.0%) and tested in duplicate at a concentration of 100 μM. Canine cardiac lipases were obtained by extracting washed heart membranes with buffer plus heparine and a small amount of Triton X-100 detergent. Because these enzymes are only active at an oil-water interface, the enzyme reaction is run in an oil-water emulsion that contains triolein substrate, Tris buffer (50mM, pH 6.8) and a small amount of bovine serum albumin (0.5%) added to stabilize the emulsion. A small amount of tritiated triolein was added to the unlabelled triolein substrate. Tritium-labelled oleic acid released by the lipases was extracted into hexane, separated from unreacted triolein and counted in a scintillation counter. Inhibitory agents reduce the amount of radioactivity appearing in the free fatty acid fraction isolated in the extraction procedure.

rat adipocyte lipolysis = assay: Rat adipocyte assay (epinephrine-stimulated lipolysis, glycerol release); type: cell-based; settings: for IC50: epinephrine 3 μM plus methylisobutylxanthine 10 μM, 1 hour at 37° C., read-out: Adipocyte I50; for Adipocyte % Inhib. at 3 μM: 3 μM compound; for inhibition at 100 µM: read-out: Adipocyte % Inhib. at 100 μM
Protocol: Abdominal fat pads were removed from male rats weighing 200-250 grams and placed in Krebs-bicarbonate buffer gassed with 95% O2 /5% CO2. The fat pads were digested with collagenase for 1 hour at 37° C., washed twice with Krebs-bicarbonate buffer and distributed among a set of 20 ml plastic counting vials. Two such vials received only buffer and cells (4 ml) but no agonists or antagonists. The remaining vials received epinephrine (3 μM) plus the phosphodiesterase inhibitor methylisobutylxanthine (10 μM). Test compounds were dissolved in DMSO or water to a concentration of […] and […] was added to the buffer plus cells in the counting vials. The final compound concentration for routine screening was 200 μM (final concentration of DMSO=1%).
The cells were incubated for 1 hour at 37° C. under a 95% O2 /5% CO2 atmosphere. The incubation was stopped by placing the vials in crushed ice. The cells and medium were transferred to test tubes, centrifuged and the cell layer removed by aspiration. The aqueous phase was assayed for glycerol using the enzyme glycerol dehydrogenase.
The glycerol dehydrogenase assay for glycerol depends on the enzyme catalyzed conversion of glycerol to glyceraldehyde and NAD to NADH. The assay can detect as little as 5-10 nanomoles of glycerol. The aqueous phase, following removal of cells, usually contained about 50 to 80 nanomoles of glycerol per 300 μl of assayed sample if no inhibitory activity was present. Samples from the control tubes (no agonist) usually contained 0-5 nanomoles of glycerol per 300 μl of sample.

[1] = Rattus norvegicus, Adipocyte, 100 μM compound

Compound | Lipase % Inh. at 100 μM (Canine cardiac lipases) [%] | Adipocyte % Inhib. at 3 μM (rat adipocyte lipolysis) [%] | also measured
2-methoxyphenyl-8-quinoyl carbamate [No. 5] | 72 | – | IC50 (rat adipocyte lipolysis): 5.8 µM
2-methyl-8-quinolyl carbanilate [No. 19] | – | – | IC50 (Canine cardiac lipases): 48 µM; IC50 (rat adipocyte lipolysis): 10 µM
2-methyl-8-quinolyl-4-methoxy carbanilate [No. 20] | – | 5 | IC50 (Canine cardiac lipases): 80 µM
4-Methoxyphenyl-8-quinolyl Urea [No. 6] | 70 | – | Adipocyte % Inhib. at 100 μM (rat adipocyte lipolysis; 100 μM compound): 98%
5-chloro-8-quinolyl carbanilate [No. 22] | 68 | 29 | –
8-quinolyl-2,4-dimethoxy carbanilate [No. 15] | 64 | 84 | –
8-quinolyl-2,5-dimethoxy carbanilate [No. 16] | 7 | 40 | –
8-quinolyl-2-chloro carbanilate [No. 10] | – | – | IC50 (Canine cardiac lipases): 200 µM; Adipocyte % Inhib. at 200 μM (rat adipocyte lipolysis; 200 μM compound): 44%
8-quinolyl-2-methyl carbanilate [No. 13] | 1 | – | –
8-quinolyl-3-chloro carbanilate [No. 9] | – | – | IC50 (Canine cardiac lipases): 7300 µM; Adipocyte % Inhib. at 200 μM (rat adipocyte lipolysis; 200 μM compound): 4%
8-quinolyl-3-methyl carbanilate [No. 12] | 41 | 5 | –
8-quinolyl-3-trifluoromethyl carbanilate [No. 14] | 63 | 76 | –
8-quinolyl-4-bromo carbanilate [No. 17] | 56 | 7 | –
8-quinolyl-4-chloro carbanilate [No. 8] | – | – | IC50 (Canine cardiac lipases): 20 µM; IC50 (rat adipocyte lipolysis): 30 µM
8-quinolyl-4-methyl carbanilate [No. 11] | 58 | 52 | –
8-quinolyl-carbanilate [No. 18] | 65 | – | IC50 (rat adipocyte lipolysis): 0.2 µM
8-quninolyl-4-carbethoxy carbanilate [No. 7] | 75 | – | Adipocyte % Inhib. at 30 μM (rat adipocyte lipolysis; 30 μM compound): 3%
COc1ccc(NC(=O)Oc2cccc3cccnc23)cc1 [No. 1, 8-Quinolyl-4-Methoxy Carbanilate] | – | – | IC50 (Canine cardiac lipases): 17 µM
COc1ccccc1NC(=O)Oc1cccc2cccnc12 [No. 2, 8-quinolyl-2-methoxy carbanilate] | – | – | IC50 (Canine cardiac lipases): 40 µM
COc1cccc(NC(=O)Oc2cccc3cccnc23)c1 [No. 3, 8-quinolyl-3-methoxy carbanilate] | – | – | IC50 (Canine cardiac lipases): 18 µM
COc1ccc(CC(=O)Oc2cccc3cccnc23)cc1 [No. 30, 8-Quinoloyl-4-methoxyphenylAcetate] | – | – | inhibition at 100 µM (rat adipocyte lipolysis; [1]): 74%

Further lines, with some results ahead:

Lipase % Inh. at 100 μM (Canine cardiac lipases) [%] | Compound | Adipocyte % Inhib. at 3 μM (rat adipocyte lipolysis) [%] | also measured
69 | 2-methyl-8-quinolyl-4-bromo carbanilate [No. 21] | 28 | –
68 | 5,7-dichloro-8-quinolyl carbanilate [No. 24] | – | IC50 (rat adipocyte lipolysis): 0.2 µM
76 | 8-(4-Methoxyphenylcarbamoyl)-quinolin)-5-sulfonic acid, Triethylamine [No. 23] | – | IC50 (rat adipocyte lipolysis): 35 µM
74 | 8-Quinolyl-4-methoxy Acetanilide [No. 25] | – | IC50 (rat adipocyte lipolysis): 35 µM
68 | 8-quinolyl-4-methoxy benzyl carbamate [No. 26] | 5 | –
69 | 8-quinolyl-4-methoxy phenethyl carbamate [No. 27] | 4 | –
13 | COc1ccc(C(=O)Oc2cccc3cccnc23)cc1 [No. 31, 8-quinolyl-4-methoxy benzoate] | – | inhibition at 200 µM (rat adipocyte lipolysis; Rattus norvegicus, Adipocyte, 200 μM compound, read-out: Adipocyte % Inhib. at 200 μM): 49%
7 | COc1ccc(NC(=O)COc2cccc3cccnc23)cc1 [compound 25] | – | inhibition at 100 µM (rat adipocyte lipolysis; [1]): 26%
56 | (R)8-quinolyl alpha-methyl benzyl carbamate [No. 29] | – | Adipocyte % Inhib. at 200 μM (rat adipocyte lipolysis; 200 μM compound): 28%
83 | (S)8-quinolyl alpha-methyl benzyl carbamate [No. 28] | – | Adipocyte % Inhib. at 200 μM (rat adipocyte lipolysis; 200 μM compound): 14%
